Measurements published in patent US20130022612A1, “METHODS AND COMPOSITIONS FOR MALARIA PROPHYLAXIS” (priority 2004, published 2013).
Non-standard residues stand in square brackets, D forms with d. Residues, ends and D or L forms follow the SMILES beside them. *: point of attachment. Sta = CC(C)C[C@H](N)[C@@H](O)CC(=O)O; Isovaleryl = CC(C)CC(=O)*

Key:
[1] = system: CSP processing in P. berghei sporozoites; assay: Pulse-chase metabolic labeling of CSP processing, P. berghei sporozoites; assay type: cell-based, Plasmodium berghei; settings: two hour chase at 28° C.; 10 mM E-64, 1 mM PMSF, 0.3 mM aprotinin, 100 mM 3,4 DCl, 75 mM leupeptin, 100 mM TLCK, 1 mM pepstatin, 1 mM 1,10 phenanthroline, 5 mM EDTA
Description: P. berghei sporozoites were incubated in Dulbecco's Modified Eagle Medium (DMEM; Invitrogen, Carlsbad, Calif.) without cysteine (Cys) and methionine (Met), containing 1% BSA and […] L-[35 S]-Cys/Met (Pro-Mix, Amersham Pharmacia) in a total volume of 200 μl for one hour at 28° C. They were then washed and resuspended in DMEM/BSA containing unlabeled Cys/Met at 28° C. for the indicated time in the presence or absence of the indicated protease inhibitor. Sporozoites were then lysed and CSP was immunoprecipitated and analyzed by autoradiography as outlined below.
When sporozoites were incubated with specific inhibitors, their concentrations were as follows: 10 […] E-64; 1 mM phenylmethylsulfonyl fluoride (PMSF); 0.3 mM aprotinin; 100 mM 3,4 DCl; 75 mM leupeptin; 100 mM TLCK; 1 mM pepstatin; 1 mM 1,10 phenanthroline; 5 mM EDTA; 0.5% sodium azide. To check for toxicity by propidium iodide (PI) staining, P. berghei sporozoites were incubated in the presence or absence of the various protease inhibitors for two hours at 28° C., PI was then added to a final concentration of […] for five minutes at 28° C. The sporozoites were washed and viewed under a fluorescent microscope.
Metabolically-labeled sporozoites were lysed in lysis buffer (1% Triton X-100, 50 mM Tris-HCl pH 8.0) with 150 mM NaCl containing a protease inhibitor cocktail (Complete Mini-Tablets, Roche) for one hour at 4° C. The lysates were incubated with mAb 3D11 conjugated to agarose overnight at 4° C. with agitation, and the beads were then washed sequentially with lysis buffer containing 150 mM NaCl, high salt buffer (500 mM NaCl in lysis buffer), lysis buffer without added NaCl, and pre-elution buffer (0.5% Triton X-100, 10 mM Tris-HCl pH 6.8). CSP was eluted with 1% SDS in 0.1 M glycine pH 1.8, neutralized with 1.5 M Tris-HCl pH 8.8, and run on a 7.5% SDS-polyacrylamide gel under nonreducing conditions.
P. berghei sporozoites were metabolically labeled as previously described (Bruna-Romero, O., et al.). Briefly, sporozoites were labeled in Dulbecco's Modified Eagle Medium containing 1% BSA (DMEM/BSA) without Cys/Met and with 400 μCi/ml L-[^35S]Cys/Met for one hour at 28° C. and chased in DMEM/BSA with Cys/Met at 28° C. in the presence of 10 μM E-64 or the indicated concentrations of allicin. Labeled sporozoites were lysed in 1% Triton X-100/150 mM NaCl/50 mM Tris-HCl pH 8.0 with protease inhibitors, and lysates were incubated with 3D11-sepharose overnight at 4° C. CSP was eluted with 1% SDS in 0.1 M glycine pH 1.8, neutralized with Tris-HCl pH 8.8, and run on a 7.5% SDS-polyacrylamide gel under nonreducing conditions. The gel was fixed, enhanced with Amplify (Amersham Pharmacia), dried and exposed to film.
P. berghei sporozoites were metabolically labeled in DMEM without Cys/Met, 1% BSA and 400 μCi/ml L-[^355]-Cys/Met for 1 hour at 28° C. and then kept on ice or chased at 28° C. for the indicated times. Details of this procedure are outlined in (Coppi et al., 2005). To investigate the kinetics of processing in the presence of hepatocytes, sporozoites were labeled as above, chased at 28° C. for 1 hour and then centrifuged (300×g) onto glass coverslips with Hepa 1-6 cells and incubated at 37° C. for 5, 15 or 30 minutes. To investigate the effect of antibodies on CSP cleavage, sporozoites were labeled as above and then chased for 2 hours in the presence of the indicated antibody. Monoclonal antibodies were used as purified antibodies at the indicated concentrations and the IgG fraction of the NH2-terminal antiserum was used after isolation by Protein A (Vivapure maxiprepA; Sartorius, Edgewood, N.Y.). In all cases, labeled sporozoites (with or without Hepa 1-6 cells) were lysed and labeled CSP was immunoprecipitated with mAb-3D11 conjugated to sepharose or in the case of P. falciparum CSP, with mAb-2A10 conjugated to sepharose, as previously described (Coppi et al., 2005). CSP was eluted from the beads, run on an SDS-PAGE gel which was enhanced, dried and exposed to film. […]

P. berghei sporozoites [2] = assay type: cell-based, Plasmodium berghei; settings: sporozoites preincubated two hours with inhibitor, Hepa 1-6 cells, one hour
Description: %invasion=total sporozites−extracellular sporozites×100/total sporozites
Invasion assays were performed as previously described (Pinzon-Ortiz, C., et al.) with some modifications. […] Cells were then washed, fixed, and sporozoites were stained with a double staining assay that distinguishes between intracellular and extracellular sporozoites (Renia, L., et al.). […]

[3] = system: CSP cleavage in P. berghei sporozoites; assay: Cell contact assay (CSP cleavage on contact with hepatocytes); assay type: cell-based, Plasmodium berghei
Description: Hepa 1-6 cells were seeded on glass coverslips at a density of 2×10^5 cells per coverslip and grown until confluent. P. berghei sporozoites were incubated in DMEM±10 mM E-64 at 4° C. for two hours. Thirty minutes before sporozoites were added to coverslips, Cytochalasin D (CD) was added to all samples (final concentration, […]). Sporozoites were centrifuged onto coverslips (1250×g) for five minutes at 4° C. Coverslips were then brought to 37° C. for two minutes, fixed with 4% paraformaldehyde and stained with either mAb 3D11 followed by anti-mouse Ig FITC or the N-terminal antiserum (1:100) followed by anti-rabbit Ig FITC. […] As a control, sporozoites were spun onto coverslips without cells using the protocol outlined above.

P. berghei sporozoites [4] = settings: sporozoites incubated with inhibitor for two hours, then metabolically labeled
Description: Panel A illustrates P. berghei sporozoites were metabolically labeled with [35 S]-Cys/Met and then washed and kept on ice (lane 1) or chased with cold medium for two hours at 28° C., in the absence (lane 2) or presence of the indicated protease inhibitors (lanes 3-11). After the chase, sporozoites were lysed, CSP was immunoprecipitated and analyzed by SDS-PAGE and autoradiography (abbreviations: Apr, aprotinin; DCl, 3,4 DCl; Leu, leupeptin; Pep, pepstatin; Phen, 1,10 phenanthroline). Panel B illustrates P. falciparum sporozoites were metabolically labeled as above and then kept on ice (lane 1) or chased with cold medium for ninety minutes in the absence (lane 2) or presence of E-64 (lane 3). Samples were processed as outlined above. Panel C illustrates P. berghei sporozoites were preincubated with buffer (lane 1) or the indicated compounds, washed, metabolically labeled with [^35S]-Cys/Met, lysed, and CSP was immunoprecipitated and analyzed by SDS-PAGE and autoradiography. (Abbreviations: Az=sodium azide).
In addition to the above, pulse-chase metabolic labeling experiments were performed with sporozoites of the human malaria parasite, Plasmodium falciparum. […] In order to insure that the protease inhibitors were not toxic to sporozoites, sporozoites were incubated with the various inhibitors for two hours and then propidium iodide (hereinafter, “PI”) was added, which is a fluorescent molecule that enters permeabilized cells.

[5] = molecular target: Plasmodium berghei circumsporozoite protein (CSP), full-length, high molecular weight form (Plasmodium berghei) (UniProt P23093); assay: cell-based or functional assay

Molecule	effect on CSP processing [1]	effect on sporozoite invasion (P. berghei sporozoites [2])	also measured
c1cnc2c(c1)ccc1cccnc12 [1,10 phenanthroline]	no effect on CSP processing		
O=c1oc(Cl)c(Cl)c2ccccc12 [3,4 DCl, 3,4-dichloroisocoumarin]	Neither compound had an effect on CSP processing	did not have significant inhibitory activity on invasion	
C=C1[C@@H](C)[C@H]2[C@H](Cc3ccccc3)NC(=O)[C@]23[C@H](OC(C)=O)/C=C/[C@@](C)(O)C(=O)[C@@H](C)C/C=C/[C@H]3[C@@H]1O [CD, cytochalasin D]			percentage staining with the N-terminal antiserum ([3]; experiment 1, no cells, visualized with α-N): 85% ± 1.1; Number of Sporozoites Visualized ([3]; experiment 1, wildtype sporozoites, Hepa 1-6, visualized with 3D11): 244 ± 3; Number of Sporozoites Visualized ([3]; experiment 2, GFP sporozoites, Hepa 1-6, visualized by GFP): 452 ± 8; Number of Sporozoites Visualized ([3]; experiment 2, GFP sporozoites, Hepa 1-6, visualized with α-N): 98 ± 2
O=C(O)CN(CCN(CC(=O)O)CC(=O)O)CC(=O)O [EDTA]	no effect on CSP processing		
O=S(=O)(F)Cc1ccccc1 [PMSF, phenylmethylsulfonyl fluoride]	inhibited CSP processing	had inhibitory activity	CSP synthesis after incubation with inhibitor (P. berghei sporozoites [4]): not affected
Cc1ccc(S(=O)(=O)N[C@@H](CCCCN)C(=O)CCl)cc1 [TLCK]	inhibited CSP processing		
CC(=O)N[C@@H](CC(C)C)C(=O)N[C@@H](CC(C)C)C(=O)N[C@H](C=O)CCCNC(=N)N [leupeptin]	inhibited CSP processing	had inhibitory activity	CSP synthesis after incubation with inhibitor (P. berghei sporozoites [4]): not affected
CC(C)CC(=O)N[C@H](C(=O)N[C@H](C(=O)N[C@@H](CC(C)C)[C@@H](O)CC(=O)N[C@@H](C)C(=O)N[C@@H](CC(C)C)[C@@H](O)CC(=O)O)C(C)C)C(C)C [pepstatin] (Isovaleryl-VV[Sta]A[Sta]-OH)	no effect on CSP processing	no effect on invasion	
aprotinin	Neither compound had an effect on CSP processing	did not have significant inhibitory activity on invasion	
mAb 3D11 (antibody)			inhibition of CSP cleavage at 10 µg/ml, pulse-chase metabolic labeling [5]: 50 to 75%
